Results from patent US5352608A (priority 1992, dated 1994).

What was measured:
R. sphaeroides 2.4.1 = test: Isolation of tellurium from membrane fractions (Te^IV to Te^o conversion); format: cell-based, Rhodobacter sphaeroides
Experimental: Two one-liter cultures of R. sphaeroides 2.4.1 were grown photoheterotrophically (10 W/m^2 incident light intensity) in SMM containing 0.4% succinate to a cell density of approximately 1.5 1.5×10^9 cells/ml. Prior to inoculation one flask was supplemented with 275 mg K2 TeO3 (equivalent to 138.3 mg Te^IV) to give a final medium concentration of […] K2 TeO3.
850 mg of crude membrane-metal complex was isolated. After purification and extraction with acetone:methanol and ethanol, 203 mg of a finely-divided metallic material resulted. Analysis of a 50.4 mg sample of this material identified 23.2 mg of Te^o (a minimum net purity of 46%). The minimum Te^o deposited in the one-liter culture, therefore, was 93 mg (203 mg×0.46) or 0.7333 mmole. Since the growth medium initially contained 138.3 mg of Te^IV, a minimum Te^IV to Te^o conversion of 67% was obtained.

Proteobacteria = test: Intrinsic HLR to tellurite, comparison across strains; format: cell-based; settings: aerobic vs photosynthetic; exception R. gelatinosus
[1] = test system: Rhodopseudomonas viridis F; test: Intrinsic HLR to TeO3^2- (MIC); format: cell-based
[2] = test system: Rhodobacter sphaeroides 2.4.1; format: cell-based
[3] = test system: Rhodobacter capsulatus B10; test: Intrinsic HLR to TeO3^2- (MIC); format: cell-based

O=[Te]([O-])[O-].[K+].[K+] [K2 TeO3]
Te^IV to Te^o conversion (R. sphaeroides 2.4.1; 250 μg/ml K2 TeO3, photoheterotrophic 10 W/m^2, minimum): ≥ 67% | Localization of deposit after subcellular fractionation (R. sphaeroides 2.4.1; discontinuous sucrose gradient): localized to the cytoplasmic membrane | MIC increase, cells grown aerobically (Proteobacteria): approximately 50% | MIC K2 TeO3 ([1]; aerobic, minimal medium): 80 µg/mL | MIC K2 TeO3 ([1]; photosynthetic, 10 W/m^2): 50 µg/mL | MIC Low-PO4^3- Medium [2]: 600 µg/mL | MIC Standard Medium [2]: 600 µg/mL | MIC ratio 10 W/m^2 vs 3 W/m^2 [2]: at least two-fold | MIC ratio aerobically- vs. photosynthetically-grown [2]: two- to three-fold | MIC relative to E. coli [2]: at least 80 times | Reduction in TeO3^2- resistance with supplement [2]: thirty- to forty-fold | Relative toxicity [2]: SeO4^2- >TeO4^2- >TeO3^2- >SeO3^2- >Rh2 O3.5H2 O | Resistance in words [2]: intrinsic high level resistance | Resistance in words ([3]; aerobic): intrinsic high level resistance | MIC K2 TeO3 ([3]; aerobic, minimal medium): 800 µg/mL | MIC relative to E. coli ([3]; aerobic, tellurite): at least 80 times | MIC K2 TeO3 ([3]; photosynthetic, 10 W/m^2): 500 µg/mL
